# Source: patent US9375530B2 (Allergan, Inc., priority 2007, dated 2016)
# Where two headings read alike, the source gives them in different places.
# Columns and labels:
# [1] = human, in vivo; cited from earlier work
# [2] = in vivo; cited from earlier work
# [3] = in vivo, cited from earlier work; for % Bioavailability: human
# kidney water channels = settings: as illustrated in FIG. 1
smiles,measurement,setting,value
"NC(=O)CC[C@@H]1NC(=O)[C@H](Cc2ccccc2)NC(=O)[C@H](Cc2ccc(O)cc2)NC(=O)CCSSC[C@@H](C(=O)N2CCC[C@H]2C(=O)N[C@H](CCCN=C(N)N)C(=O)NCC(N)=O)NC(=O)[C@H](CC(N)=O)NC1=O [desmopressin, 1-desamino-8-D-arginine vasopressin]",half life,[1],1.5 to 2.0 h
same,undesirable side-effects,[2],high incidences of hyponatremia
same,% Bioavailability,[3]; po,0.1-0.15%
same,% Bioavailability,[3]; sc,Subcutaneous (±90) %
same,ranges for peak blood levels,[3]; po,10-20 fold
same,blood concentration sufficient to activate kidney water channels and induce an antidiuretic effect,kidney water channels,about 0.8 pg/ml
